Data taken from patent US11390604B2 (Hoffmann-La Roche Inc., priority 2019, dated 2022).

test system: Acinetobacter baumannii ATCC 17961; test: Antimicrobial susceptibility testing: 90% growth inhibitory concentration (IC90) determination; assay type: cell-based; settings: ATCC17961, Acinetobacter baumannii ATCC 17961, Iso-Sensitest broth, read-out: ATCC 17961 IC90
How it was run: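 Growth was followed kinetically by OD600 at 20-min intervals for 16 h at 35±2 °C, with ~5×10^5 CFU/ml in Iso-Sensitest broth. Compounds were tested as twofold dilutions (e.g. 50–0.097 μM final). The concentration giving 90% inhibition of log-phase growth was reported.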

Structure (SMILES)	IC90
Cn1c(-c2cn(CCF)nc2C(F)(F)F)cnc1C(=O)Nc1ccc(C(=O)N2CCN(C3=NC(CN)CO3)CC2)c(Cl)c1 (stereo not shown) [Example 145, N-[4-[4-[4-(aminomethyl)-4,5-dihydro-1,3-oxazol-2-yl]piperazine-1-carbonyl]-3-chlorophenyl]-5-[1-(2-fluoroethyl)-3-(trifluoromethyl)pyrazol-4-yl]-1-methylimidazole-2-carboxamide;formic acid]	928 nM
Cn1c(-c2cn(CC(F)F)nc2C(F)(F)F)cnc1C(=O)Nc1ccc(C(=O)N2CCN(C(=O)NC3CNC3)CC2)c(Cl)c1 [Example 146, N-(azetidin-3-yl)-4-[2-chloro-4-[[5-[1-(2,2-difluoroethyl)-3-(trifluoromethyl)pyrazol-4-yl]-1-methylimidazole-2-carbonyl]amino]benzoyl]piperazine-1-carboxamide;formic acid]	434 nM
Cn1c(-c2cn(C3CCC3)nc2C(F)(F)F)cnc1C(=O)Nc1ccc(C(=O)N2CCN(C(=O)NC3CNC3)CC2)c(Cl)c1 [Example 150, N-(azetidin-3-yl)-4-[2-chloro-4-[[5-[1-cyclobutyl-3-(trifluoromethyl)pyrazol-4-yl]-1-methylimidazole-2-carbonyl]amino]benzoyl]piperazine-1-carboxamide]	324 nM
Cn1c(-c2cn(CC#N)nc2C(F)(F)F)cnc1C(=O)Nc1ccc(C(=O)N2CCN(C(=O)NC3CNC3)CC2)c(Cl)c1 [Example 151]	475 nM

Other lines, results leading:

IC90	Structure (SMILES)
621 nM	Cn1c(-c2cn(CCF)nc2C(F)(F)F)cnc1C(=O)Nc1ccc(C(=O)N2CCN(C(=O)NC3CNC3)CC2)c(Cl)c1 [Example 144, N-(azetidin-3-yl)-4-[2-chloro-4-[[5-[1-(2-fluoroethyl)-3-(trifluoromethyl)pyrazol-4-yl]-1-methylimidazole-2-carbonyl]amino]benzoyl]piperazine-1-carboxamide;formic acid]
289 nM	C=CCn1cc(-c2cnc(C(=O)Nc3ccc(C(=O)N4CCN(C(=O)NC5CNC5)CC4)c(Cl)c3)n2C)c(C(F)(F)F)n1 [Example 147, N-(azetidin-3-yl)-4-[2-chloro-4-[[1-methyl-5-[1-prop-2-enyl-3-(trifluoromethyl)pyrazol-4-yl]imidazole-2-carbonyl]amino]benzoyl]piperazine-1-carboxamide]
524 nM	Cn1c(-c2cn(CC(F)(F)F)nc2C(F)(F)F)cnc1C(=O)Nc1ccc(C(=O)N2CCN(C3=NC(CN)CO3)CC2)c(Cl)c1 (stereo not shown) [Example 148, N-[4-[4-[4-(aminomethyl)-4,5-dihydro-1,3-oxazol-2-yl]piperazine-1-carbonyl]-3-chlorophenyl]-1-methyl-5-[1-(2,2,2-trifluoroethyl)-3-(trifluoromethyl)pyrazol-4-yl]imidazole-2-carboxamide]
550 nM	Cn1c(-c2cn(CC(F)(F)F)nc2C(F)(F)F)cnc1C(=O)Nc1ccc(C(=O)N2CCN(C(=O)NC3CNC3)CC2)c(Cl)c1 [Example 149, N-(azetidin-3-yl)-4-[2-chloro-4-[[1-methyl-5-[1-(2,2,2-trifluoroethyl)-3-(trifluoromethyl)pyrazol-4-yl]imidazole-2-carbonyl]amino]benzoyl]piperazine-1-carboxamide]
1170 nM	CCc1cc(NC(=O)c2ncc(-c3cn(CC(F)F)nc3C(F)(F)F)n2C)ccc1C(=O)N1CCN(C(=O)C2CCN(C)CC2)CC1 [Example 152, 5-[1-(2,2-difluoroethyl)-3-(trifluoromethyl)pyrazol-4-yl]-N-[3-ethyl-4-[4-(1-methylpiperidine-4-carbonyl)piperazine-1-carbonyl]phenyl]-1-methylimidazole-2-carboxamide]
1000 nM	CCc1cc(NC(=O)c2ncc(-c3cn(CC(F)F)nc3C(F)(F)F)n2C)ccc1C(=O)N1CCN(C(=O)C2CNC2)CC1 [Example 153, N-[4-[4-(azetidine-3-carbonyl)piperazine-1-carbonyl]-3-ethylphenyl]-5-[1-(2,2-difluoroethyl)-3-(trifluoromethyl)pyrazol-4-yl]-1-methylimidazole-2-carboxamide;formic acid]
